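Test compounds were applied to cells in 96-well plates for 48 hours at 5 doses. GI50: concentration for 50% inhibition of growth. TGI: total growth inhibition.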
Legend:
Assay in all cases: NCI tumour cell line growth inhibition, 48 h
SF-539 CNS = test system: SF-539 CNS
KM12 colon = test system: KM12 colon
K-562 leukemia = test system: K-562 leukemia
SN12C renal = test system: SN12C renal
HOP-62 NSCLC = test system: HOP-62 NSCLC
IGROV1 ovarian = test system: IGROV1 ovarian
SK-MEL-5 melanoma = test system: SK-MEL-5 melanoma
NCI-H23 lung = test system: NCI-H23 lung
NCI-H226 lung = test system: NCI-H226 lung

| SMILES | TGI (SF-539 CNS) [µM] | TGI (KM12 colon) [µM] | TGI (K-562 leukemia) [µM] | TGI (SN12C renal) [µM] | TGI (HOP-62 NSCLC) [µM] | TGI (IGROV1 ovarian) [µM] | TGI (SK-MEL-5 melanoma) [µM] | TGI (NCI-H23 lung) [µM] | TGI (NCI-H226 lung) [µM] | GI50 (SF-539 CNS) [µM] | GI50 (KM12 colon) [µM] | GI50 (K-562 leukemia) [µM] | GI50 (SN12C renal) [µM] | GI50 (HOP-62 NSCLC) [µM] | GI50 (NCI-H23 lung) [µM] | GI50 (IGROV1 ovarian) [µM] | GI50 (NCI-H226 lung) [µM] | GI50 (SK-MEL-5 melanoma) [µM] |
| --- | --- | --- | --- | --- | --- | --- | --- | --- | --- | --- | --- | --- | --- | --- | --- | --- | --- | --- |
| CCOC(=O)c1c(SCc2cc(=O)[nH]c(=O)[nH]2)n(-c2ccccc2)c(=S)n(-c2ccccc2)c1=O | > 100 | > 100 | > 100 | > 100 | > 100 | > 100 | > 100 |  |  |  |  |  |  |  |  |  |  |  |
| CCCCNC(=O)Cn1c2ccc(Br)cc2c2nc3ccccc3nc21 |  | > 100 | > 100 | > 100 | > 100 | > 100 | > 100 | > 100 | > 100 |  |  |  |  |  |  |  |  |  |
| N#Cc1c(-c2ccc([N+](=O)[O-])cc2)c(C#N)c(=O)n(NS(=O)(=O)c2ccccc2)c1O | > 100 |  | > 100 | > 100 | > 100 | > 100 | > 100 |  | > 100 |  |  |  |  |  |  |  |  |  |
| COc1ccc(C2C=C(c3ccc(C)cc3)N(c3ccc(OC)cc3[N+](=O)[O-])C3C(=O)OC(=O)C23)c(OC)c1 (centres undefined) | 53.2 | 22.7 | > 100 |  | > 100 | 58.1 | > 100 | > 100 | > 100 |  |  |  |  |  |  |  |  |  |
| CC1(C)N=C(N)N=C(N)N1c1cccc(Cl)c1 | > 100 | > 100 | > 100 | > 100 | > 100 | > 100 | > 100 | > 100 |  |  |  |  |  |  |  |  |  |  |
| CO[P@@]1(=O)O[C@@H](c2ccccc2)[C@H](O)[C@]1(O)c1ccccc1 | > 100 | > 100 | > 100 | > 100 |  | > 100 | > 100 | > 100 | > 100 |  |  |  |  |  |  |  |  |  |
| CC(C)(C)/C(O)=C\c1nc2cc(F)c(F)cc2[nH]c1=O | > 100 | > 100 | > 100 |  | > 100 | > 100 | > 100 | > 100 | > 100 |  |  |  |  |  |  |  |  |  |
| CC(=O)Oc1ccn2nc(C)c(Br)c2c1 | > 100 | > 100 | > 100 | > 100 | > 100 | > 100 | > 100 | > 100 | > 100 |  |  |  |  |  |  |  |  |  |
| CCC1([N+](=O)[O-])CN(N=O)C1 | > 100 | > 100 | > 100 | > 100 | > 100 | > 100 | > 100 | > 100 | > 100 |  |  |  |  |  |  |  |  |  |
| C=CN(C=C)C(=O)Cn1cc(-c2ccccc2)nn1 | > 100 | > 100 | > 100 | > 100 | > 100 | > 100 | > 100 | > 100 |  |  |  |  |  |  |  |  |  |  |
| O=C1c2cc3c(cc2CC12Cc1ccc4c(c1C2=O)CCC4)CCC3 (centres undefined) | > 100 |  | > 100 |  | > 100 | > 100 | > 100 | > 100 |  |  |  |  |  |  |  |  |  |  |
| O=c1c2cc([N+](=O)[O-])ccc2oc2nc3n(c(=O)c12)CCCS3 | > 100 | > 100 | > 100 | > 100 | > 100 | > 100 | > 100 | > 100 | > 100 |  |  |  |  |  |  |  |  |  |
| CN1C2=Nc3n(c4ccccc4[n+]3C)CN2c2ccccc21 | > 100 | 46.8 | > 100 | 93.7 | > 100 | > 100 | 27.8 | > 100 |  |  |  |  |  |  |  |  |  |  |
| CSc1nc(Cl)c2c(n1)Sc1nc3ccccc3n1C2O (centres undefined) | 3.8 | > 21.2 | > 100 | > 100 | > 79 | > 100 | > 100 | > 100 | 95 |  |  |  |  |  |  |  |  |  |
| Oc1ccccc1/C=N/N1C(=S)N(C23CC4CC(CC(C4)C2)C3)C(=Nc2ccccc2)C1=Nc1ccccc1 | > 100 | > 100 | > 100 | > 100 | > 100 | > 100 | > 100 | > 100 | > 100 |  |  |  |  |  |  |  |  |  |
| CSc1ncc2c(n1)-c1ccccc1OC2NC1CC1 (centres undefined) | > 100 | > 100 | > 100 | > 100 |  | > 100 | > 100 | > 100 | > 100 |  |  |  |  |  |  |  |  |  |
| Clc1ccc(/C(=C/c2ccccc2)Cn2ccnc2)cc1 | 80.9 | > 100 | > 100 | > 100 | > 100 | > 100 | 36.4 | > 100 | > 100 |  |  |  |  |  |  |  |  |  |
| OC(CC(O)(C(F)(F)Cl)C(F)(F)Cl)c1ccccc1 (centres undefined) | > 10 | > 10 | > 10 | > 10 | > 10 | 0.0883 | 0.0502 | > 10 | > 10 |  |  |  |  |  |  |  |  |  |
| O=c1c2ccc(Cl)cc2oc2c(CNc3ccc(S(=O)(=O)Nc4ncccn4)cc3)cccc12 | > 100 | > 100 | > 100 | > 100 | > 100 | > 100 | > 100 | > 100 | > 100 |  |  |  |  |  |  |  |  |  |
| COc1ccc(C(=O)/C=C/SC(=NC#N)SC)cc1 | 45.7 | 63.9 | > 100 | 75.2 | 44.1 | 57.3 | 39 | 33.2 | 43.5 |  |  |  |  |  |  |  |  |  |
| CCN(CC)CCCCNc1c2ccc(Cl)cc2nc2ccc(OC)cc12 | 2.73 | 2.61 | 3.56 | 2.61 | 2.89 | 8.61 | 2.9 | 2.38 | 3.35 | 1.19 | 0.456 | 0.578 | 0.438 | 0.401 | 0.524 | 0.777 | 1.32 | 1.46 |
| CSc1nc(=O)c2nc(-c3cccs3)c(-c3cccs3)nc2n1C |  | > 100 | > 100 | > 100 | 47.2 | > 100 | > 100 | > 100 |  |  |  |  |  |  |  |  |  |  |
| O=C1CC[C@@]23CC(=O)O[C@@H]2CCCC3C1 (some centres undefined) | > 100 | > 100 | > 100 | > 100 | > 100 | > 100 | > 100 | > 100 | > 100 |  |  |  |  |  |  |  |  |  |

Source: PubChem BioAssay (NCI)
